≈ marks a conversion by molar mass, not a printed value.
Experiments:
[1] = in vivo; conditions: for AUC(0-inf): AUC(0-inf) of D-Methionine; for concentration at 0 h: 0.00 h (predose); for concentration at 0.5 h: 0.50 h; for Cmax: Cmax of D-Methionine
Description: (§1) Twenty-six male Sprague-Dawley rats weighing approximately 200 to 300 g were used for the study. The jugular vein of six animals were cannulated and the rest of the animals were used without any further preparation.
(§2) Dosing was conducted on two occasions. […] The drug was prepared in a suspension formulation in accordance with the present invention. The blood samples (approximately 0.5 mL/sample) were collected from each animal at predose, 15, 30 minutes, 1, 2, 4 and 6 hours postdose into microtainer tubes containing lithium heparin as an anticoagulant. Replacement blood was infused into each animal following each blood draw. […] The drug was prepared in a solution formulation. […] Blood samples were collected from each animal via the orbital sinus at predose, 2, 15, 30 minutes, 1, 2, 4 and 6 hours postdose. Each animal was bled twice. The blood was centrifuged immediately and the resulting plasma in tubes was flash frozen in liquid nitrogen and stored at approximately −70° C. until analysis.
L-Methinione can also be detected under the same HPLC conditions.
Descriptive pharmacokinetic parameters were determined by standard model independent methods (Gibaldi, M. and Perrier, D. Pharmacokinetics, Second Edition, Marcel Dekker, Inc., New York, 1982) based on the mean plasma concentration-time data. The plasma concentrations were rounded to one decimal place before the calculation. Plasma samples with concentrations below the quantifiable limit (BQL) were assigned values of zero for the calculation of mean plasma concentration.

[2] = D-methionine IV 150 mg/kg, PO 150 or 300 mg/kg
Description: as §1, §2

[3] = aqueous solutions; cited from earlier work
[4] = humans, cited from earlier work
[5] = system: cisplatin induced hair cell loss; conditions: rat model; cited from earlier work
[6] = system: oxidative stress-induced ototoxicity and nephrotoxicity; conditions: in vivo; cited from earlier work
[7] = male, Sprague-Dawley, rat, plasma, iv, 150 mg/kg, Mean Plasma Concentrations of D-Methionine, IV 150 mg/kg, solution
[8] = male, Sprague-Dawley, rat, plasma, po, 150 mg/kg, PO 150 mg/kg, solution
[9] = male, Sprague-Dawley, rat, plasma, po, 150 mg/kg, PO 150 mg/kg, suspension
[10] = male, Sprague-Dawley, rat, plasma, po, 150 mg/kg, Mean Plasma Concentrations of D-Methionine, PO 150 mg/kg, solution
[11] = male, Sprague-Dawley, rat, plasma, po, 150 mg/kg, Mean Plasma Concentrations of D-Methionine, PO 150 mg/kg, suspension
[12] = male, Sprague-Dawley, rat, plasma, po, 300 mg/kg, PO 300 mg/kg, suspension
[13] = male, Sprague-Dawley, rat, plasma, po, 300 mg/kg, Mean Plasma Concentrations of D-Methionine, PO 300 mg/kg, suspension

SMILES: CSCC[C@@H](N)C(=O)O [D-Methionine, D-methionine]
- time point at which Cmax was observed ([1]; PO 150 mg/kg, solution, first collection time point): 30 min
- first-pass metabolism suggested by systemic clearance ([1]; from CL after IV 150 mg/kg): will not be subjected to extensive first-pass metabolism
- clearance ([1]; male, Sprague-Dawley, rat, plasma, iv, 150 mg/kg): 9.28 mL/min/kg
- AUC(0-inf) ([1]; male, Sprague-Dawley, rat, plasma, iv, 150 mg/kg, IV 150 mg/kg, solution): 269 µg·h/mL
- concentration at 0 h [1, 7]: 0 ng/mL
- concentration at 0.03 h ([1]; male, Sprague-Dawley, rat, plasma, iv, 150 mg/kg, Mean Plasma Concentrations of D-Methionine, IV 150 mg/kg, solution, 0.03 h): 471 ng/mL
- concentration at 0.25 h [1, 7]: 220 ng/mL
- concentration at 0.5 h [1, 7]: 106 ng/mL
- concentration at 1 h [1, 7]: 64 ng/mL
- concentration at 2 h [1, 7]: 32.2 ng/mL
- concentration at 4 h [1, 7]: 6.13 ng/mL
- concentration at 6 h [1, 7]: 1.45 ng/mL
- half-life ([1]; male, Sprague-Dawley, rat, plasma, iv, 150 mg/kg, T1/2 (terminal half-life) of D-Methionine, IV 150 mg/kg, solution): 54 min
- bioavailability ([1]; male, Sprague-Dawley, rat, plasma, oral, 150 mg/kg): 61.3%
- Tmax ([1]; male, Sprague-Dawley, rat, plasma, po, 150 mg/kg): 30 min
- AUC(0-inf) [1, 8]: 165 µg·h/mL
- AUC(0-inf) [1, 9]: 120 µg·h/mL
- Cmax [1, 8]: 77.1 µg/mL
- Cmax [1, 9]: 71.1 µg/mL
- concentration at 0 h [1, 10]: 0 ng/mL
- concentration at 0.5 h [1, 10]: 77.1 ng/mL
- concentration at 1 h [1, 10]: 54.1 ng/mL
- concentration at 2 h [1, 10]: 41.7 ng/mL
- concentration at 4 h [1, 10]: 7.67 ng/mL
- concentration at 6 h [1, 10]: 3.4 ng/mL
- concentration at 12 h ([1]; male, Sprague-Dawley, rat, plasma, po, 150 mg/kg, Mean Plasma Concentrations of D-Methionine, PO 150 mg/kg, solution, 12.00 h): 0 ng/mL
- concentration at 0 h [1, 11]: 0 ng/mL
- concentration at 0.25 h [1, 11]: 69.5 ng/mL
- concentration at 0.5 h [1, 11]: 71.1 ng/mL
- concentration at 1 h [1, 11]: 44.1 ng/mL
- concentration at 2 h [1, 11]: 20.9 ng/mL
- concentration at 4 h [1, 11]: 4 ng/mL
- concentration at 6 h [1, 11]: 1.7 ng/mL
- half-life ([1]; male, Sprague-Dawley, rat, plasma, po, 150 mg/kg, T1/2 (terminal half-life) of D-Methionine, PO 150 mg/kg, solution): 66 min
- half-life ([1]; male, Sprague-Dawley, rat, plasma, po, 150 mg/kg, T1/2 of D-Methionine, PO 150 mg/kg, suspension): 60 min
- Tmax ([1]; male, Sprague-Dawley, rat, plasma, po, 300 mg/kg): 30 min
- AUC(0-inf) [1, 12]: 359 µg·h/mL
- Cmax [1, 12]: 175 µg/mL
- concentration at 0 h [1, 13]: 0 ng/mL
- concentration at 0.25 h [1, 13]: 120 ng/mL
- concentration at 0.5 h [1, 13]: 175 ng/mL
- concentration at 1 h [1, 13]: 128 ng/mL
- concentration at 2 h [1, 13]: 71.4 ng/mL
- concentration at 4 h [1, 13]: 22.7 ng/mL
- concentration at 6 h [1, 13]: 5.5 ng/mL
- half-life ([1]; male, Sprague-Dawley, rat, plasma, po, 300 mg/kg, T1/2 of D-Methionine, PO 300 mg/kg, suspension): 66 min
- terminal half-life (conclusion) ([1]; rats, IV and PO): approximately one hour
- mortality [2]: no mortality occurred
- solubility [3]: 50 mg/mL (≈ 335 mM)
- plasma levels compared with L-methionine [4]: higher plasma levels than L-methionine
- fraction excreted without conversion to the L-isomer ([4]; except in L-methionine deprivation): 60-70%
- effect on cisplatin damage to the stria vascularis [5]: markedly reduce cisplatin damage to the stria vascularis
- effect on cisplatin induced hair cell loss [5]: prevent cisplatin induced hair cell loss
- effect on oxidative stress-induced ototoxicity and nephrotoxicity associated with cisplatin [6]: effectively prevent
